{"source": "patent US20120015399A1", "about": "“FLUORESCENT SOLVATOCHROMIC PIGMENT” (National University Corporation Hokkaido University, priority 2009, published 2012)", "key": {"[1]": {"assay": "Fluorescence emission in water in the presence of additives (lecithin, β-cyclodextrin, Triton X-100, CTAB, SDS)", "type": "physicochemical", "conditions": "additives in deionized water, excitation 488 nm, FIG. 5", "procedure": "After adding 5 milliliters of deionized water, the mixtures were sonicated with ultrasound for 20 seconds. The supernatant solution was irradiated with light at 488 nm, and the light emitted was measured using a fluorescence spectrophotometer (F-4500). […] After adding 5 milliliters of deionized water, the mixtures were sonicated with ultrasound for 20 seconds. The supernatant solution was irradiated with light at 450 nm, and the light emitted was measured using a fluorescence spectrophotometer (F-4500)."}, "[2]": {"test_system": "macrophage cells (RAW264)", "assay": "Staining of macrophage cells, confocal laser fluorescence microscopy", "type": "cell-based", "conditions": "stain solution in calf serum/D-MEM 1:9, fifteen minutes, 37° C., argon laser 488 nm, FIG. 9", "procedure": "In the present Example, macrophage cells were stained using the pyridinium derivatives shown in Table 1 and the differences in cell staining were compared in order to investigate the effects of the alkyl chain lengths in R^7 and R^8.\nSeveral micrograms of each pyridinium derivative (Compounds 10 and 21 to 23) were added to 10 milliliters of a liquid medium obtained by mixing calf serum and D-MEM base medium in a 1:9 ratio. The mixtures were left standing in a refrigerator overnight to dissolve the solids. 5 milliliters of the supernatant solutions were removed the next day and were used as cell staining solutions after filtering the solutions through sterilizing membrane filters with a pore diameter of […] p.m.\nThe macrophage cells (RAW264 of ATCC Co., Ltd.) were floated in HydroCell dishes manufactured by Cell Seed Co., Ltd. using a liquid culture obtained by mixing calf serum and D-MEM base medium in a 1:9 ratio.\nThe media were removed from the glass bottom dishes on which the RAW264 cells were supported, and 0.2 ml of each stain solution was added. The cells were stained by leaving the dish standing for fifteen minutes in a CO2 incubator at 37° C. The stain solutions were subsequently removed, and the media were exchanged three times using a liquid medium obtained by mixing calf serum and D-MEM base medium in 1:9 ratio. […] The results are shown in terms of fluorescence microscopic images (FIG. 9)."}, "[3]": {"test_system": "human fetus kidney-derived HEK293 cells", "assay": "Staining of HEK293 cells, location of dye and emitted light wavelength", "type": "cell-based", "conditions": "stain solution in calf serum/D-MEM 1:9, fifteen minutes, 37° C., argon laser 488 nm, FIG. 10", "procedure": "In the present Example, human fetus kidney-derived HEK293 cells were stained using Compound 10, and the location of the dye and emitted light wavelength were examined.\nSeveral micrograms of Compound 10 was added to 10 milliliters of a liquid medium obtained by mixing calf serum and D-MEM base medium in a 1:9 ratio. The mixture was left standing in a refrigerator overnight to dissolve the solids. 5 milliliters of the supernatant solution was removed the next day and was used as a cell staining solution after filtering the solution through a sterilizing membrane filter with a pore diameter of […]\nThe human fetus kidney-derived cells HEK293 (Riken Cell Bank) were cultured in a five milliliter culture flask using a liquid culture obtained by mixing calf serum and D-MEM base medium in a 1:9 ratio. The solution was used to inoculate a glass bottom dish.\nThe medium was removed from the glass bottom dish on which the HEK293 cells were supported, and 0.2 ml of the stain solution was added. The cells were stained by leaving the dish standing for fifteen minutes in a CO2 incubator at 37° C. The stain solution was subsequently removed, and the medium was exchanged three times using a liquid medium obtained by mixing calf serum and D-MEM base medium in a 1:9 ratio."}}}
{"smiles": "CCCCCCN(CCCCCC)c1ccc(-c2ccc(-c3cc[n+](C)cc3)s2)cc1.O=S(=O)([O-])C(F)(F)F", "note": "[Compound 10, {4-[5-(4-dihexylamino)phenyl]thiophene-2-yl}-1-methylpyridinium trifluoromethane sulfonate]", "values": [{"measurement": "Fluorescence wavelength response to local environment", "setting": "[1]", "result": "respond sensitively to the local environment in terms of fluorescence wavelength"}, {"measurement": "Cell staining pattern", "setting": "[2]", "result": "the cell membrane and mitochondria were selectively stained"}, {"measurement": "Emitted light color by location in cell", "setting": "[3]", "result": "different for the cell membrane (1 in the figure) and mitochondria"}]}
